In ChEMBL document CHEMBL2169751, “Synthesis and biological evaluation of novel pyrazole derivatives with anticancer activity” (2011):

tested on: Mycobacterium tuberculosis; test: Antimycobacterial activity against Mycobacterium tuberculosis H37Rv ATCC 27294 after 7 days by Resazurin assay; type: functional; design: concentration or dose not given beside the values

| SMILES | inhibition (INH) |
| --- | --- |
| O=C(N/N=C/c1cc(F)ccc1O)c1cnc2c(C(F)(F)F)cccc2c1O | <90% |
| Cc1[nH]cnc1/C=N/NC(=O)c1cnc2c(C(F)(F)F)cccc2c1O | 90% |
| COc1ccc2[nH]cc(/C=N/NC(=O)c3cnc4c(C(F)(F)F)cccc4c3O)c2c1 | 95% |
| NNC(=O)c1ccncc1 [ISONIAZID] | 95% |
| Cc1cccc2c(/C=N/NC(=O)c3cnc4c(C(F)(F)F)cccc4c3O)c[nH]c12 | 95% |
| CSc1ccccc1/C=N/NC(=O)c1cnc2c(C(F)(F)F)cccc2c1O | 0% |
| COC(=O)Cc1cc(/C=N/NC(=O)c2cnc3c(C(F)(F)F)cccc3c2O)co1 | <90% |
| Cn1nnc2cc(/C=N\NC(=O)c3cnc4c(C(F)(F)F)cccc4c3O)ccc21 | <90% |
| COc1ccc(NC(=O)NNC(=O)c2cnc3c(C(F)(F)F)cccc3c2O)cc1 | 90% |
| COc1ccc(/C=N/NC(=O)c2cnc3c(C(F)(F)F)cccc3c2O)cc1O | <90% |
| Cc1ccc(/C=N/NC(=O)c2cnc3c(C(F)(F)F)cccc3c2O)cc1 | <90% |
| CCc1ccc(NC(=O)NNC(=O)c2cnc3c(C(F)(F)F)cccc3c2O)cc1 | <90% |
| O=C(N/N=C/c1ccc(OC(F)(F)C(F)F)cc1)c1cnc2c(C(F)(F)F)cccc2c1O | <90% |
| O=C(NNC(=S)Nc1cccc(Cl)c1)c1cnc2c(C(F)(F)F)cccc2c1O | <90% |
| COc1ccc(NC(=S)NNC(=O)c2cnc3c(C(F)(F)F)cccc3c2O)cc1 | <90% |
| O=C(NNC(=O)c1cnc2c(C(F)(F)F)cccc2c1O)Nc1cccc(Cl)c1 | <90% |
| O=C(N/N=C/c1ccncc1)c1cnc2c(C(F)(F)F)cccc2c1O | 0% |
| Cc1ccc(NC(=S)NNC(=O)c2cnc3c(C(F)(F)F)cccc3c2O)cc1 | 0% |
| Cc1ccc(NC(=O)NNC(=O)c2cnc3c(C(F)(F)F)cccc3c2O)cc1 | 90% |
| O=C(N/N=C/c1ccc2c(c1)CCO2)c1cnc2c(C(F)(F)F)cccc2c1O | 0% |
| COc1ccc(/C=N/NC(=O)c2cnc3c(C(F)(F)F)cccc3c2O)cc1 | 90% |
| Cc1cc(C)cc(NC(=O)NNC(=O)c2cnc3c(C(F)(F)F)cccc3c2O)c1 | <90% |
| CO[C@H]1/C=C/O[C@@]2(C)Oc3c(C)c(O)c4c(O)c(c(/C=N/N5CCN(C)CC5)c(O)c4c3C2=O)NC(=O)/C(C)=C\C=C\[C@H](C)[C@H](O)[C@@H](C)[C@@H](O)[C@@H](C)[C@H](OC(C)=O)[C@@H]1C [RIFAMPIN] | 95% |
| O=C(NNC(=S)Nc1ccccc1F)c1cnc2c(C(F)(F)F)cccc2c1O | 95% |
| O=C(NNC(=S)Nc1cccnc1)c1cnc2c(C(F)(F)F)cccc2c1O | 0% |
| Cn1cccc1/C=N\NC(=O)c1cnc2c(C(F)(F)F)cccc2c1O | 90% |
| O=C(N/N=C/c1cnc[nH]1)c1cnc2c(C(F)(F)F)cccc2c1O | 90% |
| COc1ccc(/C=N/NC(=O)c2cnc3c(C(F)(F)F)cccc3c2O)c(F)c1 | 95% |
